Like-named read-outs stand apart in the source and are kept apart here.
What was measured:
[1] = test system: AR-230 cells (bcr-abl+ chronic myeloid leukemia); test: Mosmann MTT cell viability test, AR-230; type: cell-based, human; settings: for IC50: AR-230, MTT, 72 h exposure, ± standard deviation; for Selectivity index (SI): IC50 HEK-293 / IC50 AR-230
Experimental: (§1) The anticancer activity of the dimethoxy hydrazone derivatives was tested against a panel of malignant human cell lines of different tissue origin and molecular characteristics, including several in vitro leukemia models (acute promyelocytic leukemia HL-60; bcr-abl+ chronic myeloid leukemia cell lines BV-173, K-562, and AR-230; and T-cell leukemia SKW-3), as well as the two major phenotypes of human breast adenocarcinoma (hormone-sensitive MCF-7 cells with high progesterone (PR) and estrogen receptor α (ERα) expression and triple-negative breast adenocarcinoma (TNBC) MDA-MB-231 lacking ERα, PR, and human epidermal growth factor receptor 2 (HER2)). The existence and degree of cancer selectivity of the tested compounds were evaluated against normal human embryonic kidney HEK-293 cells.
(§2) The spectrum of anti-tumor activity of the experimental compounds was assessed against human malignant cell lines of leukemic (HL-60, BV-173, K-562, AR-230, and SKW-3) and epithelial (MCF-7 and MDA-MB-231) origin, as well as normal human embryonic kidney cells (HEK-293). All cell lines were purchased from the German Collection of Microorganisms and Cell Cultures (DSMZ GmbH, Braunschweig, Germany), and cell cultures were maintained and grown in the appropriate medium specified by the provider and incubated under standard conditions of 37 °C and 5% humidified CO2 atmosphere.
(§3) The cytotoxicity assessment of the methoxysalicylaldehyde methoxybenzoylhydrazone series was performed using the Mosmann MTT method, a validated technique for evaluating cell viability. Cells in the exponential growth phase were harvested and seeded (100 µL/well) in 96-well plates at a suitable density (3 × 10^5 cells/well for suspension leukemic cultures and 1.5 × 10^5 cells/well for adherent epithelial cells). After a 24 h incubation period, the cells were treated with serial dilutions of the tested compounds within an appropriate concentration range. Following a 72 h exposure, an MTT substrate solution (5 mg/mL in PBS) was added to each well. After an additional 4 h incubation, purple insoluble formazan crystals formed. These crystals were then dissolved in an isopropyl alcohol solution containing 5% formic acid before measuring absorbance at 550 nm using a microplate reader Labexim LMR-1 (Vienna, Austria). The recorded absorbance values were blanked against MTT and isopropanol solution and normalized to the mean value of the untreated control (representing 100% cell viability). The experimental data were analyzed using non-linear regression analysis in GraphPad Prism® software 8.0 (San Diego, CA, USA), from which semi-logarithmic “dose–response” curves were constructed, and the half-inhibitory concentrations (IC50) of the tested compounds were calculated.

[2] = test system: SKW-3 cells (T-cell leukemia); test: Mosmann MTT cell viability test, SKW-3; type: cell-based, human; settings: for IC50: SKW-3, MTT, 72 h exposure, ± standard deviation; for Selectivity index (SI): IC50 HEK-293 / IC50 SKW-3
Experimental: as §1, §2, §3

[3] = test system: normal human embryonic kidney cells, HEK-293; test: Mosmann MTT cell viability test, HEK-293 (selectivity); type: cell-based; settings: HEK293, HEK-293 normal cells, 72 h exposure, ± standard deviation
Experimental: as §1, §2, §3

MDA-MB-231 cells (TNBC) = test: Mosmann MTT cell viability test, MDA-MB-231; type: cell-based, human; settings: for IC50: Homo sapiens, MDA-MB-231, MTT, 72 h exposure, ± standard deviation; for Selectivity index (SI): IC50 HEK-293 / IC50 MDA-MB-231
Experimental: as §1, §2, §3

[4] = test system: MCF-7 cells (breast ER+ adenocarcinoma); test: Mosmann MTT cell viability test, MCF-7; type: cell-based, human; settings: for IC50: Homo sapiens, MCF7, MCF-7, MTT, 72 h exposure, ± standard deviation; for Selectivity index (SI): IC50 HEK-293 / IC50 MCF-7
Experimental: as §1, §2, §3

[5] = test system: BV-173 cells (bcr-abl+ chronic myeloid leukemia); test: Mosmann MTT cell viability test, BV-173; type: cell-based, human; settings: for IC50: Homo sapiens, BV-173, MTT, 72 h exposure, ± standard deviation; for Selectivity index (SI): IC50 HEK-293 / IC50 BV-173
Experimental: as §1, §2, §3

[6] = test system: leukemia cell lines (BV-173, K-562, SKW-3, AR-230, and HL-60); test: MTT test, average over leukemia cell lines; type: cell-based, human; settings: Avg. leukemia
Experimental: (§4) The ligand efficiencies (LEs), obtained by the ratio between pIC50 and the number of heavy atoms in the molecule, along with the selectivity indices (SIs), calculated by comparing IC50 of normal cells to IC50 of cancer cells, are presented in Table 4.
as §2, §3

[7] = test system: all cancer cell lines (five leukemia, MCF-7, MDA-MB-231); test: MTT test, average over all cancer cell lines; type: cell-based, human; settings: Avg. all cancers
Experimental: as §4, §2, §3

[8] = test system: HL-60 cells (acute promyelocytic leukemia); test: Mosmann MTT cell viability test, HL-60; type: cell-based, human; settings: for IC50: Homo sapiens, HL-60, MTT, 72 h exposure, ± standard deviation; for Selectivity index (SI): IC50 HEK-293 / IC50 HL-60
Experimental: as §1, §2, §3

[9] = test system: K-562 cells (bcr-abl+ chronic myeloid leukemia); test: Mosmann MTT cell viability test, K-562; type: cell-based, human; settings: for IC50: Homo sapiens, K562, K-562, MTT, 72 h exposure, ± standard deviation; for Selectivity index (SI): IC50 HEK-293 / IC50 K-562
Experimental: as §1, §2, §3

[10] = test system: breast cancer cell lines (MCF-7, MDA-MB-231); test: MTT test, average over breast cancer cell lines; type: cell-based, human; settings: Avg. breast cancer
Experimental: as §4, §2
The cytotoxicity assessment of the methoxysalicylaldehyde methoxybenzoylhydrazone series was performed using the Mosmann MTT method, a validated technique for evaluating cell viability. Cells in the exponential growth phase were harvested and seeded (100 µL/well) in 96-well plates at a suitable density (3 × 10^5 cells/well for suspension leukemic cultures and 1.5 × 10^5 cells/well for adherent epithelial cells). After a 24 h incubation period, the cells were treated with serial dilutions of the tested compounds within an appropriate concentration range. […] These crystals were then dissolved in an isopropyl alcohol solution containing 5% formic acid before measuring absorbance at 550 nm using a microplate reader Labexim LMR-1 (Vienna, Austria). The recorded absorbance values were blanked against MTT and isopropanol solution and normalized to the mean value of the untreated control (representing 100% cell viability). The experimental data were analyzed using non-linear regression analysis in GraphPad Prism® software 8.0 (San Diego, CA, USA), from which semi-logarithmic “dose–response” curves were constructed, and the half-inhibitory concentrations (IC50) of the tested compounds were calculated.

| SMILES | IC50 ([1]; Homo sapiens, read-out: IC50) | Selectivity index (SI) [1] | IC50 ([2]; Homo sapiens, SKW3, 72 h) | Selectivity index (SI) [2] | IC50 [2] | IC50 [3] | IC50 (MDA-MB-231 cells (TNBC)) | IC50 [4] | IC50 [5] | Selectivity index (SI) [5] | Selectivity index (SI) [6] | Selectivity index (SI) [7] | IC50 [8] | Selectivity index (SI) [8] | IC50 [9] | Selectivity index (SI) [9] | Selectivity index (SI) (MDA-MB-231 cells (TNBC)) | Selectivity index (SI) [10] | Selectivity index (SI) [4] | IC50 [1] |
| --- | --- | --- | --- | --- | --- | --- | --- | --- | --- | --- | --- | --- | --- | --- | --- | --- | --- | --- | --- | --- |
| COc1cccc(C(=O)NN=Cc2ccc(OC)cc2O)c1 [Compound 4, N′-(2-hydroxy-4-methoxybenzylidene)-3-methoxybenzohydrazide] | 4.5 ± 0.4 µM | 2 | < 1 µM | 11 | 0.8 ± 0.1 µM | 8.6 ± 1.5 µM | 19.8 ± 3.1 µM | 23.3 ± 2.7 µM | 2.2 ± 0.3 µM | 4 | 5 | 4 | 2.1 ± 0.2 µM | 4 | 1.6 ± 0.2 µM | 5 |  |  |  |  |
| COc1cccc(C(=O)NN=Cc2cccc(OC)c2O)c1 [Compound 2, N′-(2-hydroxy-3-methoxybenzylidene)-3-methoxybenzohydrazide] | 5.9 ± 0.7 µM | 3 | 1.4 ± 0.1 µM | 12 |  | 16.8 ± 2.3 µM | 26.9 ± 3.3 µM | 25.6 ± 2.8 µM | 2.7 ± 0.2 µM | 6 | 7 | 5 | 3.6 ± 0.3 µM | 5 | 2.1 ± 0.1 µM | 8 | 1 | 1 | 1 |  |
| COc1ccc(C(=O)NN=Cc2ccc(OC)cc2O)cc1 [Compound 5, N′-(2-hydroxy-4-methoxybenzylidene)-4-methoxybenzohydrazide] | 1.1 ± 0.2 µM | 9 | < 1 µM | 21 | 0.5 ± 0.1 µM | 10.4 ± 1.1 µM | 60.1 ± 5 µM | 21.3 ± 1.9 µM | 1.4 ± 0.2 µM | 7 | 9 | 7 | 4.7 ± 0.5 µM | 2 | 1.5 ± 0.1 µM | 7 |  |  |  |  |
| COc1ccccc1C(=O)NN=Cc1cccc(OC)c1O [Compound 1, N′-(2-hydroxy-3-methoxybenzylidene)-2-methoxybenzohydrazide] | 50.5 ± 6.6 µM | >2 | 4.3 ± 0.5 µM | >23 |  | > 100 µM | 22 ± 2.8 µM | 30.1 ± 3.2 µM | 33.5 ± 3.4 µM | >3 | >8 | >7 | 11.2 ± 2.1 µM | >9 | 20.4 ± 2.9 µM | >5 | >5 | >4 | >3 |  |
| COc1ccc(C(=O)NN=Cc2cccc(OC)c2O)cc1 [Compound 3, N′-(2-hydroxy-3-methoxybenzylidene)-4-methoxybenzohydrazide] | > 100 µM | >1 | 2.7 ± 0.3 µM | >37 |  | > 100 µM | 23.5 ± 3.4 µM | 36.1 ± 4.4 µM | 2.7 ± 0.2 µM | >19 | >27 | >20 | 2.4 ± 0.1 µM | >42 | 2.8 ± 0.4 µM | >36 | >4 | >4 | >3 | not active |

— publication PMC11901818, “Salicylaldehyde Benzoylhydrazones with Anticancer Activity and Selectivity: Design, Synthesis, and In Vitro Evaluation” (Molecules, 2025)
